From patent publication US4618618A, “Compounds and compositions” (priority 1981, dated 1986)
Counter-ions that a name gives are not always drawn. Like-named read-outs stand apart in the source and are kept apart here.

What was measured:
[1] = cited from earlier work
[2] = Level of nitroxynil in the blood of cattle after injection (high pressure liquid chromatography)
[3] = Level of levamisole in the blood of cattle after injection (high pressure liquid chromatography)
[4] = tested on: Ostertagia, Trichostrongylus and Haemonchus; assay: Anthelmintic efficacy in infected sheep (parasite counts at slaughter); assay type: in vivo
Method: To ensure that the compounds were tested in heavily infected animals sheep harbouring a heavy naturally acquired parasitic infection were chosen and further infected with larvae of the species Ostertagia, Trichostrongylus and Haemonchus. The infections were allowed to reach maturity. […] A second group of sheep, the controls, were injected with an aqueous solution of levamisole dihydrogen phosphate at a dose rate equivalent to 6 mg of levamisole base per kilogram of animal body weight.
Half of the sheep in each group were slaughtered 7 days after treatment and the parasites in the abomasum, small intestine, large intestine and lungs were counted.

[5] = bovine, in vivo
helminth = conditions: ruminants sheep and cattle; cited from earlier work
in vivo = conditions: bovine, 10 mg/kg
liver fluke = conditions: mature and immature liver fluke; cited from earlier work
[6] = cattle, injected solution in polyethylene glycol 200 (Example 2 (a)), 17 mg of the salt/kg, each of four animals
[7] = compared with levamisole dihydrogen phosphate

For c1ccc(C2CN3CCSC3=N2)cc1 (racemic) [tetramisole, D,L-2,3,5,6-Tetrahydro-6-phenylimidazo[2,1-b]thiazole], the base catalysed hydrolysis [1] is listed as “subject to base catalysed hydrolysis”.

In the case of N#Cc1cc(I)c(O)c([N+](=O)[O-])c1.c1ccc([C@H]2CN3CCSC3=N2)cc1 [Example 1, L-2,3,5,6-tetrahydro-6-phenylimidazo[2,1-b]thiazolium 4-cyano-2-iodo-6-nitrophenoxide], the “time to maximum level of nitroxynil in the blood” value [2, 6] is reported as “approximately 24 hours”, the “rise of blood level of nitroxynil to a maximum (in words)” value ([2]; compared with nitroxynil N-ethyl-D-glucamine salt) is reported as “much more slowly” and the “nitroxynil levels obtained in the blood (in words)” value ([2]; parenteral administration) is reported as “therapeutic levels”. The “level of levamisole in the blood 4 hours after the injection, % of the maximum level” value ([3]; cattle, injected solution in polyethylene glycol 200 (Example 2 (a)), 17 mg of the salt/kg, 4 hours) was “at least 50%”, the “time to maximum level of levamisole in the blood” value [3, 6] was “approximately 2 hours” and the “duration of the level of levamisole in the blood (in words)” value [3, 7] was “maintained for a longer period of time”. The “rise of blood level of levamisole to a maximum (in words)” value [3, 7] was “much more slowly”, the “rise of blood level of levamisole to a maximum (in words)” value ([3]; compared with levamisole dihydrogen phosphate, listed as nitroxynil salt of levamisole) was “more slowly” and the “levamisole levels obtained in the blood (in words)” value ([3]; parenteral administration) was “therapeutic levels”. For the same compound, the “eradication of the helminth infection” value ([4]; sheep slaughtered 7 days after treatment, injected 14.5 mg of the salt/kg in polyethylene glycol 200) was “either completely or essentially completely eradicated” and the “eradication of the helminth infection” value ([4]; sheep slaughtered 28 days after treatment, injected 14.5 mg of the salt/kg in polyethylene glycol 200) was “either completely or essentially completely eradicated”.

With O=P(O)(O)O.c1ccc([C@H]2CN3CCSC3=N2)cc1 [levamisole dihydrogen phosphate, reference compound] the “time to maximum level of levamisole in the blood” value ([5]; 6 mg/kg) was no more than 1 h, the “course of the level of levamisole in the blood (in words)” value ([5]; sc) was “quickly rises to a maximum and quickly declines” and the “eradication of the helminth infection” value ([4]; sheep slaughtered 7 days after treatment, injected aqueous solution, 6 mg levamisole base/kg) was “either completely or essentially completely eradicated”. For the same compound, the “eradication of the helminth infection” value ([4]; sheep slaughtered 28 days after treatment, injected aqueous solution, 6 mg levamisole base/kg) was “either completely or essentially completely eradicated”.

In the case of c1ccc([C@H]2CN3CCSC3=N2)cc1 [levamisole, L-2,3,5,6-tetrahydro-6-phenylimidazo[2,1-b]thiazole], the base catalysed hydrolysis [1] is given as “subject to base catalysed hydrolysis” and the “activity as an anthelmintic agent relative to tetramisole” value (helminth) is given as “approximately twice as active as tetramisole”.

Work on N#Cc1cc(I)c(O)c([N+](=O)[O-])c1 [nitroxynil N-ethyl-D-glucamine salt] yielded a Tmax (in vivo) of 4 h.

In the case of N#Cc1cc(I)c(O)c([N+](=O)[O-])c1 [nitroxynil, 4-cyano-2-iodo-6-nitrophenol], the “activity against liver fluke” value (liver fluke) is given as “effective against both mature and immature liver fluke”.
